# Columns and labels:
# [1] = system: white blood cells; assay: Determination of esterase activity in white blood cells; type: cell-based; conditions: pH 7.5, ex 540 nm, em 620 nm
# Protocol: Leucocyte-rich layers (buffy coats) were purified from blood of healthy adult donors (taken in ACD tubes*) by adding 1.5 ml of Dextran T70 (6% in balanced salt solution), purchased from Pharmacia Fine Chemical (Piscataway, N.J., U.S.A.), to a 10 ml tube of blood. The tubes were allowed to set for one hour, then the plasma layer was transferred to sterile 15 ml centrifuge tubes, and the tubes were filled up to 7.5 ml with PBS solution (8.5 g sodium chloride in 0.05 molar potassium phosphate buffer, pH 7.5). The tubes were centrifuged at 1000 RPM for 10 minutes. The resulting cell pellet was resuspended in 10 ml lysing solution [0.83 g ammonium chloride, 0.1 g sodium bicarbonate and 0.003 g (ethylenedinitrilo)tetraacetic acid disodium salt in 100 ml of water, pH 7.2], and the tubes were allowed to set until the solution cleared. The tubes were again centrifuged, and the pellet was washed and resuspended in PBS. Cells were counted and adjusted to about 10^6 cells/ml.
# Three milliliters of various concentrations of white blood cells in potassium phosphate buffer (0.05 molar, pH 7.5) were mixed with 10 μl of the substrate of Example 3 ([…]), and the relative fluorescence was measured at an excitation wavelength of 540 nm and a maximum emission wavelength of 620 nm.
# [2] = system: carboxy esterase (Esterase, Type II); assay: Determination of esterase activity in a dry analytical element; type: biochemical; conditions: filter paper element; 10 μl of 10 μg/ml esterase, pH 7.5; 1 minute incubation at 37° C.
# Protocol: A strip of Whatman No. 2 filter paper (VWR Scientific Co., Rochester, N.Y., U.S.A.) was immersed in a solution of the substrate in methanol (3 mg in 0.5 ml). The paper was then allowed to dry at 37° C. for two hours.
# A carboxy esterase (Esterase, Type II, 100 I.U./mg protein from Sigma Chemical Co., St. Louis, Mo., U.S.A.) was dissolved in 0.05 molar potassium phosphate buffer (pH 7.5), 10 μg/ml of buffer. A sample (10 μl) of this solution was applied to the filter paper and the sample came into contact with the substrate therein. A Control solution containing only buffer was applied to a separate area of the element. After 1 minute incubation at 37° C., the element was visually examined.
# [3] = system: diacetinase; assay: Solution determination of an esterase enzyme; type: biochemical; conditions: pH 7.5, 25° C.; for Relative Fluorescence, Test Cell: ex 540 nm, em 620 nm
# Protocol: A buffered solution of the substrate was prepared as follows. The substrate in N,N-dimethylformamide (16 mg/ml solvent) was added to 500 μl TRITON X-100 surfactant, and the resulting solution was added slowly to 25 ml potassium phosphate buffer (0.05 molar, pH 7.5) with stirring. Three milliliters of the buffered solution containing the substrate was placed in each of two quartz cells. To one cell was added 10 μl of a solution containing diacetinase (0.218 I.U. diacetinase per μl of potassium phosphate buffer, pH 7.5). The second cell was the Control. The relative fluorescence of each cell solution was measured at various times with a commercially available Perkin-Elmer fluorometer (excitation, 540 nm, maximum emission, 620 nm) at pH 7.5 and 25° C.
smiles,measurement,setting,value
CC(=O)Oc1ccc2c3c(cccc13)C(=O)C=C2 [Example 3],Relative Fluorescence,"[1]; Sample 2, Cell Conc/μl 4.92 × 10^3, 0 Min",28.2
same,Relative Fluorescence,"[1]; Sample 2, Cell Conc/μl 4.92 × 10^3, 10 Min",37.1
same,Relative Fluorescence,"[1]; Sample 2, Cell Conc/μl 4.92 × 10^3, 15 Min",42.6
same,Relative Fluorescence,"[1]; Sample 2, Cell Conc/μl 4.92 × 10^3, 30 Min",60.4
same,Relative Fluorescence,"[1]; Sample 3, Cell Conc/μl 4.92 × 10^4, 0 Min",23.2
same,Relative Fluorescence,"[1]; Sample 3, Cell Conc/μl 4.92 × 10^4, 10 Min",41.7
same,Relative Fluorescence,"[1]; Sample 3, Cell Conc/μl 4.92 × 10^4, 15 Min",48.8
same,Relative Fluorescence,"[1]; Sample 3, Cell Conc/μl 4.92 × 10^4, 30 Min",70.3
same,Relative Fluorescence,"[1]; Sample 4, Cell Conc/μl 4.92 × 10^5, 0 Min",25.6
same,Relative Fluorescence,"[1]; Sample 4, Cell Conc/μl 4.92 × 10^5, 10 Min",69.0
same,Relative Fluorescence,"[1]; Sample 4, Cell Conc/μl 4.92 × 10^5, 15 Min",85.0
same,Relative Fluorescence,"[1]; Sample 4, Cell Conc/μl 4.92 × 10^5, 30 Min",124.0
same,Colour of element area contacted with esterase enzyme (visual examination),[2],bright orange
same,"Relative Fluorescence, Test Cell",[3]; 0 min,134
same,"Relative Fluorescence, Test Cell",[3]; 0.5 min,142
same,"Relative Fluorescence, Test Cell",[3]; 1.0 min,150
same,"Relative Fluorescence, Test Cell",[3]; 3.0 min,161
same,"Relative Fluorescence, Test Cell",[3]; 5.0 min,175
same,"Relative Fluorescence, Test Cell",[3]; 7.0 min,202
same,"Relative Fluorescence, Test Cell",[3]; 10.0 min,238
same,"Relative Fluorescence, Test Cell",[3]; 15.0 min,266
same,Generation of fluorescence in the cell containing the esterase enzyme (in words),[3],rapid generation of fluorescence

# Reference: patent US4812409A, “Hydrolyzable fluorescent substrates and analytical determinations using same” (Eastman Kodak Company, priority 1986, dated 1989)
